# Results as given in patent US8034791B2, “Activation of Egr-1 promoter by DNA damaging chemotherapeutics” (The University of Chicago, priority 2001, dated 2011).
# Where a name gives a salt, the structure may show the parent alone.
# Columns and labels:
# [1] = test system: PC-3 cells; experiment: Preliminary in vitro TNF-α induction, PC-3 cells; format: cell-based, human; conditions: vector treated PC-3 cells (100 MOI), 24 hrs; cisplatin 250 μM, doxorubicin 3 μM, 5-FU 20 mM, paclitaxel 14 μM
# Description: (§1) In vitro measurement of TNF-α protein. PC-3 and PROb cells were plated in 96-well plates, grown overnight, and infected with Ad.Egr.TNF at 100 multiplicities of infection, incubated for three hrs, and were then treated with cisplatin (250 μM), doxorubicin (3 μM), 5-FU (20 mM) or paclitaxel (14 μM). Supernatants were harvested 24 hrs later and human TNF-α production was quantified by ELISA. Experiments were performed in quintuplicate.
# [2] = test system: PC-3 cells; experiment: Chemo-sensitivity by MTS assay, PC-3 cells; format: cell-based, human; conditions: PC-3, Ad.Egr-TNF.11D and chemotherapy 24 hrs
# Description: (§2) Chemo-sensitivity of PC-3 and PROb cells as determined by MTS assay. PC-3 and PROb cells were plated at a density of 10^5 cells/100 μl medium in 96-well tissue culture plates and incubated overnight. […] After incubation, 200 μl of complete media, with or without chemotherapeutic agents, was added. Chemotherapeutic agents used were at final concentrations of cisplatin at 46 and 460 μM, doxorubicin at 3 and 300 μM, 5-fluorouracil at 2 and 200 mM and paclitaxel at 1.4 and 140 μM. Media was removed 24 hrs later and each well was rinsed with 200 μl of complete media (CM) and aspirated. 100 μl of CM was then added with 20 μl of CellTiter 96® Aqueous One Solution Cell Proliferation Assay solution (Promega, Madison, Wis.), and the cells were allowed to incubate for 1 hr. Absorbance was measured at 490-650 nm.
# [3] = test system: PC-3 xenografts; experiment: Analysis of microvessel density (anti-CD31), PC-3 xenografts; format: in vivo, athymic nude mice; conditions: day 27, anti-CD31
# Description: Two or three xenografts from each treatment group in the PC-3 regrowth study above were collected and fixed in 10% neutral buffered formalin, embedded in paraffin, cut in 5 μm slices, mounted, baked, cleared in xylene, and rehydrated in decreasing alcohol concentrations (100%-70%) and distilled water. Sections were microwaved in 10 mM citrate buffer at pH 6.0 for 18 min, washed and soaked in 1% hydrogen peroxide/methanol for 20 min prior to blocking with avidin-biotin (Vector Laboratories, Burlingame, Calif.) for 15 min. Slides were incubated with biotin (15 min), washed and blocked with serum-free DAKO protein (DAKO, Carpinteria, Calif.) for 10 min prior to incubation with a 1:50 dilution of goat anti-mouse CD31 antibody (Santa Cruz, Santa Cruz, Calif.) for 60 min at RT. CD-31 staining was visualized on tissue sections following incubation with DAKO biotinylated anti-goat secondary antibody for 30 min and DAB reagent (Vector) for 60 sec. Sections were counterstained with Gill 3 hematoxylin and dehydrated in ethanol (95%-100%) and xylene prior to mounting. All slides were read by an investigator blinded to the treatment groups. Positively stained vessels were counted in 5-10 high power fields (×400) per slide using light microscopy. Blood vessels were identified by endothelial cell staining and by endothelial cells surrounding intraluminal erythrocytes. […]
# [4] = test system: PC-3 cells; experiment: Chemo-inducibility of Ad.Egr-TNF.11D in vitro, PC-3 cells; conditions: PC-3 cells, doses used in the chemo-induction experiments (3 μM)
# Description: (§3) PC-3 and PROb cells were plated, infected with Ad.Egr.TNF, and incubated as discussed above. After incubation, 200 μl of CM, with or without chemotherapeutic agents, including cisplatin (250 μM), doxorubicin (3 μM), 5-fluorouracil (100 mM), gemcitabine (3 mM) and paclitaxel (14 μM) were added. Conditioned medium was harvested 24 hrs. later, and TNF-α concentration was measured (Quantikine Human TNF-α ELISA kit, R & D Systems, Minneapolis, Minn.).
# [5] = test system: PROb xenografts; conditions: PROb xenografts, vector + IP agent vs vector alone; cisplatin 9, cyclophosphamide 160, doxorubicin 15, 5-FU 100, gemcitabine 500 mg/kg
# Description: (§4) Saline or chemotherapeutic agents administered IP on days 1 and 2, including 9 mg/kg cisplatin, 160 mg/kg cyclophosphamide, 15 mg/kg doxorubicin, 100 mg/kg 5-FU and 500 mg/kg gemcitabine. Animals were euthanized, and xenografts were harvested 24 hrs after the second IP injection. Xenografts were snap-frozen in liquid nitrogen and homogenized in RIPA buffer (150 mM NaCl, 10 mM Tris pH 7.5, 5 mM EDTA pH 7.5, 100 mM PMSF, 1 µg/ml leupeptin and 2 μg/ml aprotinin) using a Brinkman Polytron homogenizer (Kinematica AG, Lucerne, Switzerland). After three freeze-thaw lysis cycles, the homogenate was centrifuged at 7800×g in a Sorvall RC-5C SS34 rotor (Kendro Laboratory Products, Newtown, Conn.) for 10 min at 4° C. TNF-α levels in the supernatants were measured by ELISA as described above.
# [6] = test system: PROb xenografts; experiment: Xenograft regrowth study, PROb; format: in vivo, athymic nude mice; conditions: day 27, among control, doxorubicin alone and vector alone
# Description: Xenograft regrowth studies. […] On days 0 and 3, mice received IT injection of 10 μl of either 5×10^9 p.u. […] IP injections of doxorubicin or NS (2 mg/kg) were administered daily from days 0 through 8. Xenografts were measured twice weekly and tumor volume was calculated according to the formula (length×width×thickness)/2. Fractional tumor volumes (V/V0 where V0=volume on day 0) were calculated and plotted.
# [7] = test system: PC-3 xenografts; format: in vivo, nude mice; conditions: IT vector 5×10^9 p.u. + IP agent vs vector and NS, cisplatin 9, cyclophosphamide 160, doxorubicin 15, 5-FU 100 mg/kg
# Description: (§5) In vivo measurement of TNF-α protein. PC-3 (1×10^7 cells) or PROb cells (5×10^6) in 100 μl PBS were injected subcutaneously into the right hind limb of nude mice. Tumor-bearing mice received IT Ad.Egr.TNF (5×10^9 p.u. in 10 μl) with 250 μl of complete media with NS or a chemotherapeutic agent, including cisplatin (9 mg/kg), cyclophosphamide (160 mg/kg), doxorubicin (15 mg/kg), 5-fluorouracil (100 mg/kg) and gemcitabine (500 mg/kg). Each mouse IP injections were administered 20 hrs after transfection, and two consecutive IT and IP injections were given. Animals were euthanized, and xenografts were harvested 48 hrs after the second IP injection. Xenografts were snap-frozen in liquid nitrogen and homogenized in RIPA buffer (150 mM NaCl, 10 mM Tris at pH 7.5, 5 mM EDTA at pH 7.5, 100 mM PMSF, 1 μg/ml leupeptin and 2 μg/ml aprotinin). After three freeze-thaw lysis cycles, the homogenate was centrifuged for 10 minutes at 4° C. TNF-α levels in the supernatants were measured as described above.
# [8] = test system: PROb xenografts; format: in vivo, nude mice; conditions: IT vector 5×10^9 p.u. + IP agent vs vector plus NS, cisplatin 9, cyclophosphamide 160, doxorubicin 15, 5-FU 100, gemcitabine 500 mg/kg
# Description: as §5
# [9] = test system: PROb cells; experiment: Preliminary in vitro TNF-α induction, PROb cells; format: cell-based, rat; conditions: PROb cells treated with Ad.TNF (100 MOI), 24 hrs; cisplatin 250 μM, doxorubicin 3 μM, 5-FU 20 mM, paclitaxel 14 μM
# Description: as §1
# [10] = test system: PROb cells; experiment: Chemo-inducibility of Ad.Egr-TNF.11D in vitro, PROb cells; format: cell-based, rat; conditions: vector-infected PROb cells, 24 hrs; cisplatin 250 μM, doxorubicin 3 μM, 5-FU 100 mM, gemcitabine 3 mM, paclitaxel 14 μM
# Description: as §3
# [11] = test system: PC-3 xenografts; format: in vivo, athymic nude mice; conditions: vector + IP agent days 1 and 2, cisplatin 9, cyclophosphamide 160, doxorubicin 15, 5-FU 100, gemcitabine 500 mg/kg
# Description: as §4
# [12] = test system: PROb cells; experiment: Chemo-sensitivity by MTS assay, PROb cells; format: cell-based, rat; conditions: Ad.Egr-TNF.11D and chemotherapy 24 hrs
# Description: as §2
# [13] = test system: PC-3 xenografts; experiment: Xenograft regrowth study, PC-3; format: in vivo, athymic nude mice
# Description: Xenograft regrowth studies. Treatment was initiated on day 0 at which time mice were assigned to one of 4 treatment groups: control, doxorubicin, Ad.Egr-TNF.11D, and combination of Ad.Egr-TNF.11D and doxorubicin. On days 0 and 3, mice received IT injection of 10 μl of either 5×10^9 p.u. Ad.Egr-TNF.11D, or 10 μl of viral formulation buffer. IP injections of doxorubicin or NS (2 mg/kg) were administered daily from days 0 through 8. Xenografts were measured twice weekly and tumor volume was calculated according to the formula (length×width×thickness)/2. Fractional tumor volumes (V/V0 where V0=volume on day 0) were calculated and plotted.
# [14] = higher concentration: cisplatin 460 μM, doxorubicin 300 μM, 5-FU 200 mM, taxol 140 μM
# [15] = lower concentration: cisplatin 46 μM, doxorubicin 3 μM, 5-FU 2 mM, taxol 1.4 μM
smiles,measurement,setting,value
"COc1cccc2c1C(=O)c1c(O)c3c(c(O)c1C2=O)C[C@@](O)(C(=O)CO)C[C@@H]3O[C@H]1C[C@H](N)[C@H](O)[C@H](C)O1 [doxorubicin, doxorubicin hydrochloride]",increased TNF levels,[1],14.5 fold
same,surviving fraction,[2]; [14],30%
same,surviving fraction,[2]; [15],90%
same,number of vessels per high power field,[3],6.24±0.35
same,toxicity to cells,[4],toxic at the doses used
same,induction of TNF-α protein,[5],2.3 fold
same,tumor growth delay,[6],no difference in tumor growth delay
same,induced TNF-α,[7],3.1 fold
same,increased TNF-α levels,[8],2.5 fold
same,increased TNF levels,[9],7.3 fold
same,increase in TNF-α levels,[10],7.4 fold
same,increase in TNF-α levels,[11],4.2 fold
same,surviving fraction,[12]; [14],85%
same,surviving fraction,[12]; [15],100%
same,tumor growth,"[13]; PC-3 xenografts, day 23, doxorubicin 2 mg/kg IP daily",3 fold
same,"systemic toxicity, including weight loss and deaths",[13]; xenograft regrowth studies in nude mice,"Systemic toxicity, including weight loss and deaths, was observed"
